From patent publication US7417156B2, “Orally active, antimalarial, anticancer, artemisinin-derived trioxane dimers” (Johns Hopkins University, priority 2002, dated 2008)

Tests used:
MOLT-4 = tested on: MOLT-4
Method: Growth Inhibition. […] The screening assay is performed on 96-well microtitre plates. Relatively high initial inoculation densities are used, in order to permit measurement of “time-zero” values and to enhance the screen's ability to detect and provide some differentiation between growth inhibition and cytotoxic response parameters. […] The inoculated microtitre plates are pre-incubated for 24 hours at 37° C. prior to drug additions. The five drug dilutions tested routinely range from 10^−4 to 10^−8 molar. Higher or lower concentration ranges may be selected on a non-routine basis if appropriate solubility and/or prior biological information or other screening data so dictate. Duplicate wells are prepared for all concentrations, (concentration is often denoted by placing brackets around a number); “time-zero” and “no drug” controls are also provided for each test. The minimum amount of compound required for a one-time evaluation in the routine screen can be calculated from the knowledge that each test requires a total of approximately 40 ml (0.04 liter) of cell culture medium containing the highest desired drug concentration. […] After a 48 hour incubation (37° C.) with the test compound, the cells are fixed in situ to the bottoms of the microtitre wells by addition of 50 μl of either 50% trichloroacetic acid (for adherent cell lines) or 80% trichloroacetic acid (for settled cell suspension lines), followed by incubation for 60 minutes at 4° C. The cellular protein in each well is assayed using a sulforhodamine B (SRB) stain procedure. Briefly, after discarding the supernatants, the microtitre plates are washed 5 times with deionized water and air-dried. […] Unbound SRB is removed by washing 5 times with 1% acetic acid. […] SRB is a bright pink anionic dye which, in dilute acetic acid, binds electrostatically to the basic amino acids of TCA-fixed cells. Cryopreserved master stocks of all the lines are maintained, and cultures used for screening are replaced from the master stock after no more than twenty passages in the screening laboratory. The cell line panel consists of 60 lines, organized into nine, disease-related subpanels including leukemia, non-small-cell lung cancer, colon, CNS, melanoma, ovarian, renal, prostate and breast cancers.
At this value the increase from time tzero, in the number or mass of cells in the test well is only 50% as much as the corresponding increase in the control well during this period of the experiment, see Table III. A drug effect of this intensity is interpreted as primary growth inhibition.
At this value the number or mass of cells in the well at the end of the experiment equals the number or mass of cells in the well at time tzero, see Table IV. A drug effect of this intensity is regarded as cytostasis.
At this value, the number or mass of cells in the test well at the end of the experiment is half that at time tzero, see Table V. This is interpreted as cytotoxicity.
Dose response curves, shown in the above mentioned Figures, are obtained by exposing various cancer cell lines to compounds having a known concentration ([log10M]), as discussed in detail above, and then plotting the percentage growth of each cell line for each concentration. […] Percentage growth is determined by dividing the number or mass of cells in the test well by the number or mass of cells in a control well. […] As discussed previously, the five drug dilutions routinely tested range from 10^−4 to […].

A549/ATCC = assay: NCI 60 cell line panel screen (SRB); format: cell-based, human
EKVX = assay: NCI 60 cell line panel screen (SRB); format: cell-based, human
NCI-H322M = format: cell-based
NCI-H522 = assay: NCI 60 cell line panel screen (SRB); format: cell-based, human
HT29 = assay: NCI 60 cell line panel screen (SRB); format: cell-based, human
SF-539 = assay: NCI 60 cell line panel screen (SRB); format: cell-based, human
UACC-257 = assay: NCI 60 cell line panel screen (SRB); format: cell-based, human; conditions: UACC-257 (Melanoma)
IGROVI = assay: NCI 60 cell line panel screen (SRB); format: cell-based, human
OVCAR-5 = assay: NCI 60 cell line panel screen (SRB); format: cell-based, human
786-0 = assay: NCI 60 cell line panel screen (SRB); format: cell-based, human
TK-10 = assay: NCI 60 cell line panel screen (SRB); format: cell-based, human
UO-31 = assay: NCI 60 cell line panel screen (SRB); format: cell-based, human
HS 578T = assay: NCI 60 cell line panel screen (SRB); format: cell-based, human
MDA-MB-435 = assay: NCI 60 cell line panel screen (SRB); format: cell-based, human
T-47D = assay: NCI 60 cell line panel screen (SRB); format: cell-based, human

Compound: C[C@@H]1CC[C@H]2[C@@H](C)C(CC(O)(CC3OC4O[C@]5(C)CC[C@H]6[C@H](C)CC[C@@H]([C@H]3C)C46OO5)c3ccc(C(=O)O)cc3)OC3O[C@]4(C)CCC1C32OO4 (some centres unmarked) [Compound 11b, bis-trioxane tertiary alcohol benzoic acid]
- Log10GI50 (MOLT-4; Leukemia, MOLT-4): <−8.30
- Log10LC50 (MOLT-4; MOLT-4 (Leukemia), LC50: PG=−50): >−4.30 log10M
- Log10TGI50 (MOLT-4; MOLT-4 (Leukemia), TGI: PG=0): >−4.30 log10M
- Log10LC50 (A549/ATCC; A549/ATCC (Non-Small Cell Lung Cancer), LC50: PG=−50): >−4.30 log10M
- Log10TGI50 (A549/ATCC; A549/ATCC (Non-Small Cell Lung Cancer), TGI: PG=0): >−4.30 log10M
- Log10GI50 (A549/ATCC; Non-Small Cell Lung Cancer, A549/ATCC): −5.69
- Log10LC50 (EKVX; EKVX (Non-Small Cell Lung Cancer), LC50: PG=−50): >−4.30 log10M
- Log10TGI50 (EKVX; EKVX (Non-Small Cell Lung Cancer), TGI: PG=0): >−4.30 log10M
- Log10GI50 (EKVX; Non-Small Cell Lung Cancer, EKVX): −4.79
- Log10GI50 (NCI-H322M): −6.72
- Log10TGI50 (NCI-H322M): >−4.30 log10M
- Log10LC50 (NCI-H322M; NCI-H322M (Non-Small Cell Lung Cancer), LC50: PG=−50): >−4.30 log10M
- Log10TGI50 (NCI-H522; NCI-H522 (Non-Small Cell Lung Cancer), TGI: PG=0): >−4.30 log10M
- Log10LC50 (NCI-H522; NCI-H-522 (Non-Small Cell Lung Cancer), LC50: PG=−50): >−4.30 log10M
- Log10GI50 (NCI-H522; Non-Small Cell Lung Cancer, NCI-H522): −6.54
- Log10GI50 (HT29; Colon Cancer, HT29): <−8.30
- Log10LC50 (HT29; HT29 (Colon Cancer), LC50: PG=−50): >−4.30 log10M
- Log10TGI50 (HT29; HT29 (Colon Cancer), TGI: PG=0): >−4.30 log10M
- Log10GI50 (SF-539; CNS Cancer, SF-539): −4.80
- Log10LC50 (SF-539; SF-539 (CNS Cancer), LC50: PG=−50): >−4.30 log10M
- Log10TGI50 (SF-539; SF-539 (CNS Cancer), TGI: PG=0): >−4.30 log10M
- Log10LC50 (UACC-257; LC50: PG=−50): >−4.30 log10M
- Log10TGI50 (UACC-257; TGI: PG=0): >−4.30 log10M
- Log10LC50 (IGROVI; IGROVI (Ovarian Cancer), LC50: PG=−50): >−4.30 log10M
- Log10TGI50 (IGROVI; IGROVI (Ovarian Cancer), TGI: PG=0): −4.50 log10M
- Log10GI50 (IGROVI; Ovarian Cancer, IGROVI): −5.98
- Log10LC50 (OVCAR-5; OVCAR-5 (Ovarian Cancer), LC50: PG=−50): >−4.30 log10M
- Log10TGI50 (OVCAR-5; OVCAR-5 (Ovarian Cancer), TGI: PG=0): −6.95 log10M
- Log10GI50 (OVCAR-5; Ovarian Cancer, OVCAR-5): <−8.30
- Log10LC50 (786-0; 786-0 (Renal Cancer), LC50: PG=−50): >−4.30 log10M
- Log10TGI50 (786-0; 786-0 (Renal Cancer), TGI: PG=0): >−4.30 log10M
- Log10GI50 (786-0; Renal Cancer, 786-0): −7.17
- Log10GI50 (TK-10; Renal Cancer, TK-10): −7.81
- Log10LC50 (TK-10; TK-10 (Renal Cancer), LC50: PG=−50): >−4.30 log10M
- Log10TGI50 (TK-10; TK-10 (Renal Cancer), TGI: PG=0): −5.86 log10M
- Log10GI50 (UO-31; Renal Cancer, UO-31): −6.78
- Log10LC50 (UO-31; UO-31 (Renal Cancer), LC50: PG=−50): >−4.30 log10M
- Log10TGI50 (UO-31; UO-31 (Renal Cancer), TGI: PG=0): >−4.30 log10M
- Log10GI50 (HS 578T; Breast Cancer, HS 578T): −5.15
- Log10LC50 (HS 578T; HS 578T (Breast Cancer), LC50: PG=−50): >−4.30 log10M
- Log10TGI50 (HS 578T; HS 578T (Breast Cancer), TGI: PG=0): >−4.31 log10M
- Log10GI50 (MDA-MB-435; Breast Cancer, MDA-MB-435): −8.16
- Log10LC50 (MDA-MB-435; MDA-MB-435 (Breast Cancer), LC50: PG=−50): >−4.30 log10M
- Log10TGI50 (MDA-MB-435; MDA-MB-435 (Breast Cancer), TGI: PG=0): >−4.30 log10M
- Log10GI50 (T-47D; Breast Cancer, T-47D): <−8.30
- Log10LC50 (T-47D; T-47D (Breast Cancer), LC50: PG=−50): >−4.30 log10M
- Log10TGI50 (T-47D; T-47D (Breast Cancer), TGI: PG=0): >−4.30 log10M
